Test results: article PMC10282079, “Design, synthesis, in vitro anti-α-glucosidase evaluations, and computational studies of new phthalimide-phenoxy-1,2,3-triazole-N-phenyl (or benzyl) acetamides as potential anti-diabetic agents” (Scientific Reports, 2023)

Assays:
yeast α-glucosidase = molecular target: T1, yeast α-glucosidase (Saccharomyces cerevisiae, UniProt P53341); assay: biochemical; assay type: biochemical; details: for IC50: yeast α-glucosidase, mean ± SD of three independent experiments; for α-glucosidase inhibitory activity in words: SAR discussion of Table 1
T1 construct: purchased Sigma-Aldrich
Protocol: The in vitro enzymatic inhibitory activity of phthalimide-phenoxy-1,2,3-triazole-N-phenyl (or benzyl) acetamide 11a–n was evaluated against yeast α-glucosidase.
The change in absorbance was measured at 405 nm using by a standard spectrophotometer (Gen5, Power wave xs2, BioTek, America).

α-glucosidase = molecular target: T2, α-glucosidase (Saccharomyces cerevisiae, UniProt P53341); assay: Kinetic study of α-glucosidase inhibition (Lineweaver–Burk); assay type: biochemical
T2 construct: purchased Sigma-Aldrich
Protocol: For this purpose, the reaction rates in the presence of different concentrations of compound 11j were measured in various concentrations of substrate (p-nitrophenyl-a-D-glucopyranoside). Graphs of different concentrations of inhibitor were drawn by the Lineweaver–Burk plot (Fig. 2a). […] The Ki value was calculated directly by plotting the slope of each line in the Lineweaver–Burk plots into the different concentrations of compound 11j (Fig. 2b).
The 20 µL of α-glucosidase solution (1 U/mL) was incubated with different concentrations of compound 11j (0, 12, 23 and 46 µM) for 15 min at 30 °C. The reaction was then started by adding different concentrations of substrate (1–10 mM) and change in absorbance was measured for 20 min at 405 nm using by spectrophotometer (Gen5, Power wave xs2, BioTek, America).

T1 sequence (P53341 whole entry): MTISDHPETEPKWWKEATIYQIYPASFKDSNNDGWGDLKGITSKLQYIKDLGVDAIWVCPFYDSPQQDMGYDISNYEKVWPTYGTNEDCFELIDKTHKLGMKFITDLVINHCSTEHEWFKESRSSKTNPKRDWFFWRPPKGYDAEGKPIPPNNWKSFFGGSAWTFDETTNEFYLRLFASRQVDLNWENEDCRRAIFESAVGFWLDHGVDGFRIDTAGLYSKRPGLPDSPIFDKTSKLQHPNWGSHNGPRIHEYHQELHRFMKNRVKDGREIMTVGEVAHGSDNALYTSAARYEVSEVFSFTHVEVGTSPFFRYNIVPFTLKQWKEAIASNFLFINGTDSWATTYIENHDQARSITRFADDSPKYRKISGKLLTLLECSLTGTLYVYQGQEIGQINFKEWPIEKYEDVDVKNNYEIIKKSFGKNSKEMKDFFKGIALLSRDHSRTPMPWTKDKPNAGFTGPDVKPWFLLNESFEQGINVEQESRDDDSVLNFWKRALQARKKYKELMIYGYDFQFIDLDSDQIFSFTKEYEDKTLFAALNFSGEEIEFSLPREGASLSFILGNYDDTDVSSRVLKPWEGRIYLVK
T2 sequence (P53341 whole entry): as above

IC50 (yeast α-glucosidase) [µM] | SMILES | melting point [°C] | Fold less potent than compound 11a (yeast α-glucosidase; ratio of IC50 values) [fold] | α-glucosidase inhibitory activity in words (yeast α-glucosidase) | Inhibition mode (α-glucosidase; Lineweaver–Burk plot) | Ki (α-glucosidase; secondary re-plot of Lineweaver–Burk slopes, substrate p-nitrophenyl-a-D-glucopyranoside) [µM]
203.8 ± 0.32 | O=C(Cn1cc(COc2ccc(N3C(=O)c4ccccc4C3=O)cc2)nn1)Nc1ccccc1 [Compound 11a, 2-(4-((4-(1,3-dioxoisoindolin-2-yl)phenoxy)methyl)-1H-1,2,3-triazol-1-yl)-N-phenylacetamide] | 218 to 220 |  |  |  | 
 | Cc1cccc(C)c1NC(=O)Cn1cc(COc2ccc(N3C(=O)c4ccccc4C3=O)cc2)nn1 [Compound 11c, N-(2,6-dimethylphenyl)-2-(4-((4-(1,3-dioxoisoindolin-2-yl)phenoxy)methyl)-1H-1,2,3-triazol-1-yl)acetamide] | 209 to 211 |  | inactive |  | 
188.3 ± 0.27 | O=C(Cn1cc(COc2ccc(N3C(=O)c4ccccc4C3=O)cc2)nn1)Nc1cccc(F)c1 [Compound 11e, 2-(4-((4-(1,3-dioxoisoindolin-2-yl)phenoxy)methyl)-1H-1,2,3-triazol-1-yl)-N-(3-fluorophenyl)acetamide] | 204 to 206 |  |  |  | 
112.16 ± 0.03 | O=C(Cn1cc(COc2ccc(N3C(=O)c4ccccc4C3=O)cc2)nn1)Nc1cccc(Cl)c1 [Compound 11f, N-(3-chlorophenyl)-2-(4-((4-(1,3-dioxoisoindolin-2-yl)phenoxy)methyl)-1H-1,2,3-triazol-1-yl)acetamide] | 210 to 212 |  |  |  | 
284 ± 0.41 | O=C(Cn1cc(COc2ccc(N3C(=O)c4ccccc4C3=O)cc2)nn1)Nc1ccc(Cl)cc1Cl [Compound 11h, N-(2,4-dichlorophenyl)-2-(4-((4-(1,3-dioxoisoindolin-2-yl)phenoxy)methyl)-1H-1,2,3-triazol-1-yl)acetamide] | 232 to 234 |  |  |  | 
46.2 ± 0.89 | O=C(Cn1cc(COc2ccc(N3C(=O)c4ccccc4C3=O)cc2)nn1)Nc1c(Cl)cccc1Cl [Compound 11i, N-(2,6-dichlorophenyl)-2-(4-((4-(1,3-dioxoisoindolin-2-yl)phenoxy)methyl)-1H-1,2,3-triazol-1-yl)acetamide] | 202 to 204 |  |  |  | 
273.3 ± 0.28 | Cc1cc([N+](=O)[O-])ccc1NC(=O)Cn1cc(COc2ccc(N3C(=O)c4ccccc4C3=O)cc2)nn1 [Compound 11l, 2-(4-((4-(1,3-dioxoisoindolin-2-yl)phenoxy)methyl)-1H-1,2,3-triazol-1-yl)-N-(2-methyl-4-nitrophenyl)acetamide] | 228 to 230 |  |  |  | 
685.99 ± 0.32 | O=C(Cn1cc(COc2ccc(N3C(=O)c4ccccc4C3=O)cc2)nn1)NCc1ccc(F)cc1 [Compound 11n, 2-(4-((4-(1,3-dioxoisoindolin-2-yl)phenoxy)methyl)-1H-1,2,3-triazol-1-yl)-N-(4-fluorobenzyl)acetamide] | 204 to 206 |  |  |  | 

SMILES | IC50 (yeast α-glucosidase) [µM] | melting point [°C] | Fold less potent than compound 11a (yeast α-glucosidase; ratio of IC50 values) [fold] | α-glucosidase inhibitory activity in words (yeast α-glucosidase) | Inhibition mode (α-glucosidase; Lineweaver–Burk plot) | Ki (α-glucosidase; secondary re-plot of Lineweaver–Burk slopes, substrate p-nitrophenyl-a-D-glucopyranoside) [µM]
Cc1cccc(NC(=O)Cn2cc(COc3ccc(N4C(=O)c5ccccc5C4=O)cc3)nn2)c1C [Compound 11b, N-(2,3-dimethylphenyl)-2-(4-((4-(1,3-dioxoisoindolin-2-yl)phenoxy)methyl)-1H-1,2,3-triazol-1-yl)acetamide] | 366.1 ± 0.86 | 206 to 208 | 1.8 |  |  | 
CCc1ccc(NC(=O)Cn2cc(COc3ccc(N4C(=O)c5ccccc5C4=O)cc3)nn2)cc1 [Compound 11d, 2-(4-((4-(1,3-dioxoisoindolin-2-yl)phenoxy)methyl)-1H-1,2,3-triazol-1-yl)-N-(4-ethylphenyl)acetamide] | 491.68 ± 0.11 | 202 to 204 |  | significant decrease in the inhibitory activity |  | 
O=C(Cn1cc(COc2ccc(N3C(=O)c4ccccc4C3=O)cc2)nn1)Nc1cccc(Cl)c1Cl [Compound 11g, N-(2,3-dichlorophenyl)-2-(4-((4-(1,3-dioxoisoindolin-2-yl)phenoxy)methyl)-1H-1,2,3-triazol-1-yl)acetamide] | 239.1 ± 0.41 | 203 to 205 |  | moderate anti-α-glucisidase activity |  | 
O=C(Cn1cc(COc2ccc(N3C(=O)c4ccccc4C3=O)cc2)nn1)Nc1ccc(Br)cc1 [Compound 11j, N-(4-bromophenyl)-2-(4-((4-(1,3-dioxoisoindolin-2-yl)phenoxy)methyl)-1H-1,2,3-triazol-1-yl)acetamide] | 45.26 ± 0.03 | 237 to 239 |  | moderate anti-α-glucisidase activity | competitive inhibitor | 50.4
O=C(Cn1cc(COc2ccc(N3C(=O)c4ccccc4C3=O)cc2)nn1)Nc1ccc([N+](=O)[O-])cc1 [Compound 11k, 2-(4-((4-(1,3-dioxoisoindolin-2-yl)phenoxy)methyl)-1H-1,2,3-triazol-1-yl)-N-(4-nitrophenyl)acetamide] | > 750 | 260 to 262 |  | complete loss of inhibitory activity |  | 
O=C(Cn1cc(COc2ccc(N3C(=O)c4ccccc4C3=O)cc2)nn1)NCc1ccccc1 [Compound 11m, N-benzyl-2-(4-((4-(1,3-dioxoisoindolin-2-yl)phenoxy)methyl)-1H-1,2,3-triazol-1-yl)acetamide] | > 750 | 201 to 203 |  | inactive |  | 
